The source of these data is patent publication US5449661A, “Angiotensin converting enzyme inhibitor and method for preparing same” (The Calpis Food Industry Co., Ltd., priority 1992, dated 1995).

This test concerns the target T1, angiotensin converting enzyme (ACE) (Oryctolagus cuniculus, UniProt P12822).
T1 sequence (P12822 34-1310): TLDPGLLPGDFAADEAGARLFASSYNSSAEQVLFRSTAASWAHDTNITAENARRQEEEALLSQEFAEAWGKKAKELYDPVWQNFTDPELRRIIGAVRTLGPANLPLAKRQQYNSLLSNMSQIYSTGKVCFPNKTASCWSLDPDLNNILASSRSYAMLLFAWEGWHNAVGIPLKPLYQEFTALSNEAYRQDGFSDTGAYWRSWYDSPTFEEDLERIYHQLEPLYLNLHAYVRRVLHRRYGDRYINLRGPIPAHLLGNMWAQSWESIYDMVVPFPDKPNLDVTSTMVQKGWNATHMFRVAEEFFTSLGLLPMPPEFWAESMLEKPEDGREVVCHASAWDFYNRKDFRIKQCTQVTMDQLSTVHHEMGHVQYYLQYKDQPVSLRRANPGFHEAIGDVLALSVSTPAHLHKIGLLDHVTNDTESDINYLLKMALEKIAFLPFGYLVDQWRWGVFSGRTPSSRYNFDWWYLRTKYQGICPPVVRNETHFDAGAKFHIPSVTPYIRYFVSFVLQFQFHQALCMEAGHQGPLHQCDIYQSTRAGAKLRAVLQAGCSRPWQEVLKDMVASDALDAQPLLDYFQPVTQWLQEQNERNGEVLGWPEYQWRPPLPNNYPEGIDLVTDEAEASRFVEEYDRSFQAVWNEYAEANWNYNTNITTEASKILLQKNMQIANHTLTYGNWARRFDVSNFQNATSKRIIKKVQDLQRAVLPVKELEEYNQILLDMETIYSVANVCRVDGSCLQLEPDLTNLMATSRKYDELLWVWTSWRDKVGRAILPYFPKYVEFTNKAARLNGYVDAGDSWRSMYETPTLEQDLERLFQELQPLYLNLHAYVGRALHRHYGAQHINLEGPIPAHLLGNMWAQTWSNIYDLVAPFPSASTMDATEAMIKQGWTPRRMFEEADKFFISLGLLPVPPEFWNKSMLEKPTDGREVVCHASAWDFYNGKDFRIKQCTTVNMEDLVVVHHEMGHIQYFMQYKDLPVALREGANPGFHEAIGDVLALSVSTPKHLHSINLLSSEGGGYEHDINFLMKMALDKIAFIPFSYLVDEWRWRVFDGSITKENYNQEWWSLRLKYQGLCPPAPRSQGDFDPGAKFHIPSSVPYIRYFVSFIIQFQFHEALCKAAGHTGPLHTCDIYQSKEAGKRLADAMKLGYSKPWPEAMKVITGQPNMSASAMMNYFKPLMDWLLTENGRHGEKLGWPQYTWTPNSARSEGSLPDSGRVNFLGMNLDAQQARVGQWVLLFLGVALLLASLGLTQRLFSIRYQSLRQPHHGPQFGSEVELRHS
The test can be described thus: ACE inhibiting activity (method of Cushman and Cheung, Hip-His-Leu substrate). Particulars: read-out: IC50 (μM), ACE inhibiting activity of synthesized peptides; chemically synthesized peptides; measured in the same way as in Example 1.

Residues, ends and D or L forms follow the SMILES beside them.

Method: 0.2 ml of hippuryl histidyl leucine (Hip-His-Leu, manufactured by SIGMA CHEMICAL CO.), adjusted to 5 mM with a 0.1M boric acid buffer containing 0.3M NaCl, pH 8.3, and 0.02 ml of an aqueous enzyme solution (ACE, 0.1 u/ml, manufactured by SIGMA CHEMICAL CO.) were added in this order as a substrate to the contents of each test tube, and reaction was carried out at 37° C. for 30 minutes. 0.25 ml of 1N hydrochloric acid was subsequently added to the contents of each test tube. After termination of the reaction, 1.7 ml of ethyl acetate was added to the contents of each tube, and agitation was continued for 20 seconds. After centrifugal separation at 3000 rpm for 10 minutes, and recovery of 1.4 ml of an ethyl acetate layer, the solvent was removed by heating at 120° for 40 minutes. After removing the solvent and adding 1 ml of distilled water, the absorption at 228 nm of the extracted hippuric acid was measured and adopted as the ACE inhibiting activity. The inhibiting ratio was calculated by the following equation:
Inhibiting Percentage=[(A-B)/(A-C)]×100(%)

On to `CC(C)C[C@H](N)C(=O)N[C@H](C(=O)N[C@@H](CCC(N)=O)C(=O)N[C@H](C(=O)N1CCC[C@H]1C(=O)N[C@H](C(=O)N[C@H](C(=O)N[C@H](C(=O)N1CCC[C@H]1C(=O)N1CCC[C@H]1C(=O)O)C(C)C)C(C)C)C(C)C)[C@@H](C)O)[C@@H](C)O` (H-LTQTPVVVPP-OH), for which the IC50 (usually the point on the concentration scale where inhibition reaches its midpoint) is 160 µM.

As to `CC(C)[C@H](NC(=O)[C@@H]1CCCN1C(=O)[C@H](C)N)C(=O)N1CCC[C@H]1C(=O)N1CCC[C@H]1C(=O)O` [Ala--Pro--Val--Pro--Pro, Ala-Pro-Val-Pro-Pro] (H-APVPP-OH), the IC50 worked out at 627 µM.

`CC(C)C[C@H](N)C(=O)N[C@H](C(=O)N1CCC[C@H]1C(=O)N1CCC[C@H]1C(=O)O)C(C)C` [Leu--Val--Pro--Pro, Leu-Val-Pro-Pro] (H-LVPP-OH): the IC50 came out at 125 µM.

For `CC(C)C[C@H](NC(=O)[C@@H](N)Cc1ccccc1)C(=O)N[C@H](C(=O)N1CCC[C@H]1C(=O)N1CCC[C@H]1C(=O)O)C(C)C` [Phe--Leu--Val--Pro--Pro, Phe-Leu-Val-Pro-Pro] (H-FLVPP-OH), the IC50 was found to be 12 µM.

Consider `CC(C)[C@H](NC(=O)[C@@H]1CCCN1)C(=O)N1CCC[C@H]1C(=O)N1CCC[C@H]1C(=O)O` [Pro--Val--Pro--Pro, Pro-Val-Pro-Pro] (H-PVPP-OH), for which the IC50 was 181 µM.

For the compound `CC(C)[C@H](NC(=O)[C@@H]1CCCN1)C(=O)N[C@H](C(=O)N[C@H](C(=O)N1CCC[C@H]1C(=O)N1CCC[C@H]1C(=O)O)C(C)C)C(C)C` [Pro--Val--Val--Val--Pro--Pro, Pro-Val-Val-Val-Pro-Pro] (H-PVVVPP-OH), the IC50 came out at 117 µM.

Consider `CC(C)[C@H](N)C(=O)N[C@H](C(=O)N1CCC[C@H]1C(=O)N1CCC[C@H]1C(=O)O)C(C)C` [Val--Val--Pro--Pro, Val-Val-Pro-Pro] (H-VVPP-OH), for which the IC50 turned out to be 285 µM.

Regarding `CC(C)[C@H](N)C(=O)N[C@H](C(=O)N[C@H](C(=O)N1CCC[C@H]1C(=O)N1CCC[C@H]1C(=O)O)C(C)C)C(C)C` [Val--Val--Val--Pro--Pro, Val-Val-Val-Pro-Pro] (H-VVVPP-OH), the IC50 stood at 873 µM.
